The subject of this assay is NBD1. Put plainly: Aggregation analysis of NBD1 thermal stability by differential static light scattering (DSLS). In kind it is binding, Human. The following applies: compound at 100 μM; ΔTagg versus DMSO control. The procedure: Purified recombinant NBD1 was produced using previously described methods (A. Schmidt, J. L. Mendoza, P. J. Thomas (2011) Biochemical and Biophysical Approaches to Probe CFTR Structure (365-376) M. D. Amaral, K. Kunzelmann (eds.), Cysic Fibrosis, Methods in Molecular Biology 741, Springer Science+Business Media). The effect of test compounds on thermal stability of NBD1 was evaluated by differential static light scattering (DSLS) using the Harbinger Stargazer-384 instrument (Epiphyte Three, Toronto, Canada). Test compounds were dissolved and diluted to desired concentrations in 100% DMSO. The compounds or DMSO controls (100 nL) were stamped into wells of a […] low volume optical plate (Corning Inc., Corning, NY) using the Echo 555 acoustic liquid handler (Labcyte Inc., San Jose, CA).
NBD1 protein was diluted to 0.2 mg/ml in S200 buffer (50 mM Tris-HCl, 150 mM NaCl, 5 mM MgCl2, 2 mM ATP, 2 mM DTT, pH7.6) containing 1% glycerol. 10 uL of protein solution was aliquoted into the 384-well plate harboring the test compounds and 10 uL mineral oil was overlayed onto the protein solution, using the epMotion robotic liquid handler (Eppendorf North America, Hauppauge, NY). After placing into the Stargazer instrument, the plate was heated at 1° C. per minute to 70° C. Images were captured from 25° C. to 70° C. every 0.5° C. At the end of the experiment run, instrument software integrated image files and analyzed data automatically. A […] regression curve was generated for each well, representing the increase in light scattering over time. A temperature of aggregation (Tagg) was calculated based on the inflection point of the curve. To better compare data across experiments the average Tagg for DMSO control wells was calculated and subtracted from values for wells containing compounds to obtain a “ΔTagg” value. These ΔTagg values reflect stabilizing efficacy of the compounds.
Take `c1ccc(Cc2nnc(-c3cncc(Oc4ccc5[nH]ccc5c4)c3)[nH]2)cc1` [Example 29, 5-((5-(5-Benzyl-4H-1,2,4-triazol-3-yl)pyridin-3-yl)oxy)-1H-indole]: the “DSLS NBD1/3D Human Stability delta-T (° C.) @ 100 (μM)” value (“DSLS NBD1/3D Human Stability delta-T” for short) is recorded as “C (≤4° C.)”. For `CC(O)(c1ccccc1)c1cnc(-c2cccc(Oc3ccc4[nH]ccc4c3S(C)(=O)=O)c2)[nH]1` (racemic) [Example 63, 1-(2-(3-((4-(methylsulfonyl)-1H-indol-5-yl)oxy)phenyl)-1H-imidazol-5-yl)-1-phenylethan-1-ol], the “DSLS NBD1/3D Human Stability delta-T” value is given as “A (T ≥8° C.)”.

For `C[S+]([O-])c1c(Oc2cccc(-c3ncc(C(O)c4ccccc4)[nH]3)c2)ccc2[nH]ccc12` (centres unmarked) [Example 55, (2-(3-((4-(Methylsulfinyl)-1H-indol-5-yl)oxy)phenyl)-1H-imidazol-5-yl)(phenyl)methanol], the “DSLS NBD1/3D Human Stability delta-T” value is listed as “B (4-8° C.)”. In the case of `COCCNC(=O)c1c(Oc2cccc(-c3nc(C(O)c4ccccc4)c[nH]3)c2)ccc2[nH]ccc12` (centres unmarked) [Example 82, 5-(3-(4-(Hydroxy(phenyl)methyl)-1H-imidazol-2-yl)phenoxy)-N-(2-methoxyethyl)-1H-indole-4-carboxamide], the “DSLS NBD1/3D Human Stability delta-T” value was “B (4-8° C.)”. The entry for `NC(c1ccccc1)c1nnc(-c2cccc(Oc3ccc4[nH]ccc4n3)c2)[nH]1` (centres unmarked) [Example 17, (5-(3-((1H-Pyrrolo[3,2-b]pyridin-5-yl)oxy)phenyl)-4H-1,2,4-triazol-3-yl)(phenyl)methanamine] is “B (4-8° C.)”.

`O=C(c1cccc(-c2nnc(Cc3ccccc3)[nH]2)c1)c1ccc2[nH]ccc2c1` [Example 34, (3-(5-Benzyl-4H-1,2,4-triazol-3-yl)phenyl)(1H-indol-5-yl)methanone]: the “DSLS NBD1/3D Human Stability delta-T” value is reported as “C (≤4° C.)”. The entry for `CC(O)(c1ccccc1)c1cnc(-c2cccc(Oc3c(F)cc4[nH]ccc4c3S(C)(=O)=O)c2)[nH]1` (centres unmarked) [Example 5, 1-(2-(3-((6-Fluoro-4-(methylsulfonyl)-1H-indol-5-yl)oxy)phenyl)-1H-imidazol-5-yl)-1-phenylethan-1-ol] is “A (T ≥8° C.)”.

In the case of `O=C1NCc2c[nH]c3ccc(Oc4cccc(-c5nnc(Cc6ccccc6)[nH]5)c4)c1c23` [Example 42, 6-(3-(5-Benzyl-4H-1,2,4-triazol-3-yl)phenoxy)-3,4-dihydropyrrolo[4,3,2-de]isoquinolin-5(1H)-one], the “DSLS NBD1/3D Human Stability delta-T” value is “C (≤4° C.)”. Turning to `O=C(O)CCc1c(Oc2cccc(-c3nnc(Cc4ccccc4)[nH]3)c2)ccc2[nH]ccc12` [Example 58, 3-(5-(3-(5-Benzyl-4H-1,2,4-triazol-3-yl)phenoxy)-1H-indol-4-yl)propanoic acid], the “DSLS NBD1/3D Human Stability delta-T” value is reported as “A (T ≥8° C.)”. Take `OCc1c(Oc2cccc(-c3nnc(Cc4ccccc4)[nH]3)c2)ccc2[nH]ccc12` [Example 20, (5-(3-(5-Benzyl-4H-1,2,4-triazol-3-yl)phenoxy)-1H-indol-4-yl)methanol]: the “DSLS NBD1/3D Human Stability delta-T” value is recorded as “B (4-8° C.)”. For the compound `CS(=O)(=O)NC(=O)Cc1c(Oc2cccc(-c3nnc(Cc4ccccc4)[nH]3)c2)ccc2[nH]ccc12` [Example 56, 2-(5-(3-(5-Benzyl-4H-1,2,4-triazol-3-yl)phenoxy)-1H-indol-4-yl)-N-(methylsulfonyl)acetamide], the “DSLS NBD1/3D Human Stability delta-T” value is recorded as “A (T ≥8° C.)”.

As to `CC(c1ccccc1)c1c[nH]c(-c2cc(Oc3c(F)cc4[nH]ccc4c3CC3SC(=O)NC3=O)ccc2F)n1` (centres unmarked) [Example 2, 5-((6-Fluoro-5-(4-fluoro-3-(4-(1-phenylethyl)-1H-imidazol-2-yl)phenoxy)-1H-indol-4-yl)methyl)thiazolidine-2,4-dione], the “DSLS NBD1/3D Human Stability delta-T” value is on record as “B (4-8° C.)”. For `CS(=O)(=O)c1c(Oc2cccc(-c3ncc(C(N)c4ccccc4)[nH]3)c2)c(F)cc2[nH]ccc12` (centres unmarked) [Example 15, (2-(3-((6-Fluoro-4-(methylsulfonyl)-1H-indol-5-yl)oxy)phenyl)-1H-imidazol-5-yl)(phenyl)methanamine], the “DSLS NBD1/3D Human Stability delta-T” value is given as “A (T ≥8° C.)”. Turning to `CC(C)NCc1c(Oc2cccc(-c3nnc(Cc4ccccc4)[nH]3)c2)ccc2[nH]ccc12` [Example 21, N-((5-(3-(5-Benzyl-4H-1,2,4-triazol-3-yl)phenoxy)-1H-indol-4-yl)methyl)propan-2-amine 2,2,2-trifluoroacetate], the “DSLS NBD1/3D Human Stability delta-T” value is reported as “B (4-8° C.)”. Regarding `CC(=O)c1c(Oc2cccc(-c3nc(C(C)(O)c4ccccc4)c[nH]3)c2)c(F)cc2[nH]ccc12` (centres unmarked) [Example 65, 1-(6-Fluoro-5-(3-(4-(1-hydroxy-1-phenylethyl)-1H-imidazol-2-yl)phenoxy)-1H-indol-4-yl)ethan-1-one], the “DSLS NBD1/3D Human Stability delta-T” value is on record as “A (T ≥8° C.)”. For `NCc1nc(-c2cc(Oc3c(F)cc4[nH]ccc4c3F)ccc2F)[nH]c1Cc1ccccc1` [Example 80, (5-Benzyl-2-(5-((4,6-difluoro-1H-indol-5-yl)oxy)-2-fluorophenyl)-1H-imidazol-4-yl)methanamine], the “DSLS NBD1/3D Human Stability delta-T” value is on record as “B (4-8° C.)”. The entry for `CC(=O)NCc1c(Oc2cccc(-c3ncc(C(O)c4ccccc4)[nH]3)c2)ccc2[nH]ccc12` (centres unmarked) [Example 18, N-((5-(3-(5-(Hydroxy(phenyl)methyl)-1H-imidazol-2-yl)phenoxy)-1H-indol-4-yl)methyl)acetamide] is “A (T ≥8° C.)”; for `O=C(O)c1c(Oc2cccc(-c3nc(C(O)(c4ccccc4)C(F)(F)F)n[nH]3)c2)ccc2[nH]ccc12` (centres unmarked) [Example 67, 5-(3-(3-(2,2,2-Trifluoro-1-hydroxy-1-phenylethyl)-1H-1,2,4-triazol-5-yl)phenoxy)-1H-indole-4-carboxylic acid] it is “C (≤4° C.)”.

With `Cn1nc(-c2cccc(Oc3ccc4[nH]ccc4c3C(N)=O)c2)nc1Cc1ccccc1` [Example 57, 5-(3-(5-Benzyl-1-methyl-1H-1,2,4-triazol-3-yl)phenoxy)-1H-indole-4-carboxamide], the “DSLS NBD1/3D Human Stability delta-T” value is reported as “B (4-8° C.)”. The entry for `CS(=O)(=O)c1c(Oc2ccc(F)c(-c3nc(C(OCCO)c4ccccc4)c[nH]3)c2)c(F)cc2[nH]ccc12` (centres unmarked) [Example 72, 2-((2-(2-Fluoro-5-((6-fluoro-4-(methylsulfonyl)-1H-indol-5-yl)oxy)phenyl)-1H-imidazol-4-yl)(phenyl)methoxy)ethan-1-ol] is “A (T ≥8° C.)”; for `O=C(NCC(O)C(F)(F)F)c1c(Oc2cccc(-c3nc(C(O)c4ccccc4)c[nH]3)c2)ccc2[nH]ccc12` (centres unmarked) [Example 83, 5-(3-(4-(Hydroxy(phenyl)methyl)-1H-imidazol-2-yl)phenoxy)-N-(3,3,3-trifluoro-2 hydroxypropyl)-1H-indole-4-carboxamide] it is “A (T ≥8° C.)”.

Take `OCc1c(Oc2cccc(-c3ncn(Cc4ccccc4)n3)c2)ccc2[nH]ccc12` [Example 23, (5-(3-(1-Benzyl-1H-1,2,4-triazol-3-yl)phenoxy)-1H-indol-4-yl)methanol]: the “DSLS NBD1/3D Human Stability delta-T” value was “B (4-8° C.)”.

`OC(c1cccc(-c2nnc(Cc3ccccc3)[nH]2)c1)c1ccc2[nH]ccc2c1` (single isomer, unassigned) [Example 35B, (3-(5-Benzyl-4H-1,2,4-triazol-3-yl)phenyl)(1H-indol-5-yl)methanol]: the “DSLS NBD1/3D Human Stability delta-T” value is “C (≤4° C.)”.

Values taken from patent publication US20240239784A1, “INDOLE COMPOUNDS AND METHODS OF USE” (GENZYME CORPORATION, priority 2021, published 2024).
